Measurements from patent US8551999B2, “Heterocyclic compound and pharmaceutical composition thereof” (Otsuka Pharmaceutical Co., Ltd., priority 2007, dated 2013).

Structure (SMILES) | melting point
Br.COc1ccc(CN2CCN(C(=O)c3cc4cc(Oc5ccc(NC(=O)c6ccc(Cl)c(Cl)c6)cn5)ccc4n3C)CC2)cc1 [Example 349, 3,4-Dichloro-N-(6-{2-[4-(4-methoxybenzyl)piperazine-1-carbonyl]-1-methyl-1H-indol-5-yloxy}pyridin-3-yl)benzamide hydrobromide] | 244 to 247 °C (dec.)
Br.CN(C(=O)c1ccc(C(F)(F)F)cc1)c1ccc(Oc2ccc3c(c2)cc(C(=O)N2CCN(Cc4ccc(C#N)cc4)CC2)n3C)nc1 [Example 339, N-(6-{2-[4-(4-Cyanobenzyl)piperazine-1-carbonyl]-1-methyl-1H-indol-5-yloxy}pyridin-3-yl)-N-methyl-4-trifluoromethylbenzamide hydrobromide] | 251 to 255 °C (dec.)
Br.CN(C(=O)c1ccc(OC(F)F)cc1)c1ccc(Oc2ccc3cc(C(=O)N4CCN(Cc5ccc(OCC(F)(F)F)cc5)CC4)n(C)c3c2)nc1 [Example 284, 4-Difluoromethoxy-N-methyl-N-[6-(1-methyl-2-{4-[4-(2,2,2-tri-fluoroethoxy)benzyl]piperazine-1-carbonyl}-1H-indol-6-yloxy)-pyridin-3-yl]benzamide hydrobromide] | 203.8 to 205.6 °C
Cc1cc(C(F)(F)F)ccc1C(=O)Nc1ccc(Oc2ccc3cc(C(=O)N4CCN(Cc5ccc(OCC(F)(F)F)cc5)CC4)n(C)c3c2)nc1.Cl | 217.4 to 218.3 °C
Br.COc1cccc(CN2CCN(C(=O)c3cc4cc(Oc5ccc(N(C)C(=O)c6ccc(C(F)(F)F)cc6)cn5)ccc4n3C)CC2)c1 [Example 351, N-(6-{2-[4-(3-Methoxybenzyl)piperazine-1-carbonyl]-1-methyl-1H-indol-5-yloxy}pyridin-3-yl)-N-methyl-4-trifluoromethylbenzamide hydrobromide] | 217 to 219 °C
CN(c1ccc(Oc2ccc3cc(C(=O)N4CCN(Cc5ccc(OCC(F)F)cc5)CC4)n(C)c3c2)nc1)S(=O)(=O)c1ccc(Cl)c(Cl)c1 [Example 512, 3,4-Dichloro-N-[6-(2-{4-[4-(2,2-difluoroethoxy)benzyl]piperazine-1-carbonyl}-1-methyl-1H-indol-6-yloxy)pyridin-3-yl]-N-methyl-benzenesulfonamide] | 168.4 to 168.6 °C
Br.CN(C(=O)c1ccc(C(F)(F)F)cc1)c1ccc(Oc2ccc3c(c2)cc(C(=O)N2CCN(Cc4ccc(F)cc4)CC2)n3C)nc1 [Example 549, N-(6-{2-[4-(4-Fluorobenzyl)piperazine-1-carbonyl]-1-methyl-1H-indol-5-yloxy}pyridin-3-yl)-N-methyl-4-trifluoromethylbenzamide hydrobromide] | 218 to 220 °C
Cc1cc(CN2CCN(C(=O)c3cc4cc(Oc5ccc(N(C)C(=O)c6ccc(C(F)(F)F)cc6)cn5)ccc4n3C)CC2)no1.O=C(O)/C=C\C(=O)O [Example 568, N-Methyl-N-(6-{1-methyl-2-[4-(5-methylisoxazol-3-ylmethyl)-piperazine-1-carbonyl]-1H-indol-5-yloxy}pyridin-3-yl)-4-tri-fluoromethylbenzamide maleate] | 112 to 115 °C
Cn1c(C(=O)N2CCN(Cc3ccccn3)CC2)cc2cc(Oc3ncc(NC(=O)c4ccc(Cl)c(Cl)c4)cn3)ccc21 [Example 385, 3,4-Dichloro-N-{2-[1-methyl-2-(4-pyridin-2-ylmethylpiperazine-1-carbonyl)-1H-indol-5-yloxy]pyrimidin-5-yl}benzamide] | 161 to 163 °C
Br.Cc1cc(CN2CCN(C(=O)c3cc4cc(Oc5ccc(NC(=O)c6ccc(C(F)(F)F)cc6)cn5)ccc4n3C)CC2)no1 [Example 569, N-(6-{1-Methyl-2-[4-(5-methylisoxazol-3-ylmethyl)piperazine-1-carbonyl]-1H-indol-5-yloxy}pyridin-3-yl)-4-trifluoromethyl-benzamide hydrobromide] | 220 to 223 °C
Br.Cn1c(C(=O)N2CCN(Cc3ccc(F)cc3)CC2)cc2cc(Oc3ccc(NC(=O)c4ccc(C(F)(F)F)cc4)cn3)ccc21 [Example 551, N-(6-{2-[4-(4-Fluorobenzyl)piperazine-1-carbonyl]-1-methyl-1H-indol-5-yloxy}pyridin-3-yl)-4-trifluoromethylbenzamide hydrobromide] | 254 to 257 °C
Br.Cc1cc(Oc2ccc3cc(C(=O)N4CCN(Cc5ccc(OCC(F)(F)F)cc5)CC4)n(C)c3c2)ncc1N(C)C(=O)c1ccc(C(F)(F)F)cc1 [Example 47, N-Methyl-N-[4-methyl-6-(1-methyl-2-{4-[4-(2,2,2-trifluoroethoxy)-benzyl]piperazine-1-carbonyl}-1H-indol-6-yloxy)pyridin-3-yl]-4-trifluoromethylbenzamide hydrobromide] | 220 to 222.5 °C
COCc1ccc(CN2CCN(C(=O)c3cc4cc(Oc5ccc(N(C)C(=O)c6ccc(C(F)(F)F)cc6)cn5)ccc4n3C)CC2)cc1.O=C(O)/C=C\C(=O)O [Example 415, N-(6-{2-[4-(4-Methoxymethylbenzyl)piperazine-1-carbonyl]-1-methyl-1H-indol-5-yloxy}pyridin-3-yl)-N-methyl-4-trifluoromethyl-benzamide maleate] | 137 to 139 °C
Br.CCN(C(=O)c1ccc(C(F)(F)F)cc1)c1ccc(Oc2ccc3cc(C(=O)N4CCN(Cc5ccc(OCC(F)(F)F)cc5)CC4)n(C)c3c2)nc1 [Example 26, N-Ethyl-N-[6-(1-methyl-2-{4-[4-(2,2,2-trifluoroethoxy)benzyl]-piperazine-1-carbonyl}-1H-indol-6-yloxy)pyridin-3-yl]-4-tri-fluoromethylbenzamide hydrobromide] | 189.8 to 192.8 °C
Br.CC(C)Oc1ccc(CN2CCN(C(=O)c3cc4cc(Oc5ccc(NC(=O)c6ccc(C(F)(F)F)cc6)cn5)ccc4n3C)CC2)cc1 [Example 460, N-(6-{2-[4-(4-Isopropoxybenzyl)piperazine-1-carbonyl]-1-methyl-1H-indol-5-yloxy}pyridin-3-yl)-4-trifluoromethylbenzamide hydrobromide] | 236.8 to 243.8 °C
CCOc1cccc(CN2CCN(C(=O)c3cc4cc(Oc5ccc(N(C)C(=O)c6ccc(Cl)c(Cl)c6)cn5)ccc4n3C)CC2)c1.O=C(O)/C=C\C(=O)O [Example 374, 3,4-Dichloro-N-(6-{2-[4-(3-ethoxybenzyl)piperazine-1-carbonyl]-1-methyl-1H-indol-5-yloxy}pyridin-3-yl)-N-methylbenzamide maleate] | 99 to 100 °C
Br.CN(C(=O)c1ccc(Cl)c(Cl)c1)c1ccc(Oc2ccc3c(c2)cc(C(=O)N2CCN(Cc4ccc5c(c4)OCO5)CC2)n3C)nc1 [Example 6, N-{6-[2-(4-Benzo[1,3]dioxol-5-ylmethylpiperazine-1-carbonyl)-1-methyl-1H-indol-5-yloxy]pyridin-3-yl}-3,4-dichloro-N-methyl-benzamide hydrobromide] | 222 to 226 °C
Br.CC(C)Oc1ccc(CN2CCN(C(=O)c3cc4ccc(Oc5ccc(N(C)C(=O)c6ccc(OC(F)(F)F)cc6)cn5)cc4n3C)CC2)cc1 [Example 472, N-(6-{2-[4-(4-Isopropoxybenzyl)piperazine-1-carbonyl]-1-methyl-1H-indol-6-yloxy}pyridin-3-yl)-N-methyl-4-trifluoromethoxy-benzamide hydrobromide] | 237.2 to 238.5 °C
